Values quoted from earlier work as cited in patent US20260000700A1, “TARGETED LINEAR CONJUGATES COMPRISING POLYETHYLENEIMINE AND POLYETHYLENE GLYCOL AND POLYPLEXES COMPRISING THE SAME” (TARGIMMUNE THERAPEUTICS AG, priority 2022, published 2026).

Biological target: EGFR (Homo sapiens, UniProt P00533)

With YHWYGYTPQNVI [GE-11] as the sequence, how does the Kd read?
The Kd was 22 nM.
